Data: publication PMC10815964, “Cyclobutanone Inhibitors of Diaminopimelate Desuccinylase (DapE) as Potential New Antibiotics” (International Journal of Molecular Sciences, 2024)
Values joined by “and” are separate entries in the source; they are usually repeats but may differ in a detail not shown here. Equal values may be shown once. Read-outs that look alike come from different tables or passages of the source.

How the values were obtained:
[1] = target: HiDapE (Haemophilus influenzae, UniProt P44514); assay: DapE inhibition, ninhydrin-based assay; assay type: biochemical; conditions: for inhibition at 100 µM: 100 µM inhibitor, read-out: DapE % Inhib at 100 µM; for IC50: ninhydrin assay
Description: All compounds were screened for DapE inhibitory potency using a ninhydrin-based assay at 100 μM, and IC50 values were determined for molecules that inhibited DapE > 70% at 100 μM (Table 1). Some SAR trends emerge from the data.
Experimental IC50 curves for cyclobutanone inhibitors against DapE were identified as sigmoidal shaped response curves, as opposed to simple hyperbolic plots. […] IC50 curves with the corresponding Hill coefficients are reported in the Supplementary Materials as Figures S74−S81. Experimental Hill coefficients may provide information on the number of binding sites of a biological target (receptors and enzymes) interacting with ligands.
The inhibition of HiDapE by potential inhibitors was assessed using the previously developed ninhydrin assay with slight modifications. It was performed in a PCR Thermal Cycler System. All experiments were performed in triplicate in 50 mM HEPES buffer at pH 7.5. Reaction volumes were 100 µL of 2 mM N^6-Methyl-L,L-SDAP and 8 nM HiDapE. Ninhydrin was purchased as a 2% solution in 100% DMSO/lithium acetate buffer at pH 5.2. The inhibitor, followed by HiDapE, was added to a 50 mM HEPES (pH 7.5) buffered solution at 30 °C, and the mixture was incubated at 30 °C for 10 min. N^6-Methyl-L,L-SDAP was added, and the reaction mixture was incubated at 30 °C for 10 min, then heated to 99 °C for 1 min, and further cooled to 0 °C for 1 min. The 2% ninhydrin solution (50 µL) was added, and the mixture was thoroughly mixed. The reaction mixture was heated to 80 °C for 15 min, then cooled to 0 °C for 1 min. The absorbance of an 80 μL aliquot was recorded at 570 nm on a BioTek Synergy 2 microplate reader. All the inhibition assays of HiDapE were performed in triplicate and the IC50 values were obtained by fitting the data following the modified Hill equation: V = V0 + (Vmax − V0) XnH/(XnH0.5 + XnH) using the graphing suite Origin 9.1 with the Levenberg–Marquardt non-linear least-squares algorithm. The velocity in the absence of the substrate is […]; the velocity at saturating concentrations of the substrate or with no inhibitor for the inhibition assay is Vmax; X is the concentration of the substrate or inhibitor; and X0.5 is the substrate (S0.5) and inhibitor (I0.5) concentration at 50% maximum velocity and at 50% inhibition, respectively. The Hill coefficient is represented as nH.

[2] = target: H. influenzae DapE (HiDapE) (Haemophilus influenzae, UniProt P44514); assay: Thermal shift assay (SYPRO Orange); assay type: binding
Description: A thermal shift assay was conducted to observe changes in the thermal stability of DapE under various concentrations of the inhibitor 3y, as summarized in Table 2. These studies were conducted on a Step One Real-Time PCR System and associated QuantStudio software (QuantStudio 5, Design and Analysis 2) through the fluorescence of the SYPRO Orange dye during protein denaturation. […] Upon addition of the inhibitor 3y, we observed a stabilization of the tertiary structure of the enzyme binding to the inhibitor, as indicated by a positive shift in the first melt temperature (Tm1). […] The thermal shift assay plot of Tm vs. log [3y (µM)] to determine the Ki of compound 3y is in the Supplementary Materials as Figure S82. […] Binding of a ligand most commonly leads to further stabilization of a protein, but destabilization as indicated by a lower Tm has been observed by others. Based on our previous work, [27] we observed sequential temperatures at which HiDapE was dissociating via circular dichroism: first at about 60 °C, which we hypothesize is the dimer dissociating, and a second at about 80 °C, which may represent denaturation of the monomer.
H. influenzae DapE was used at a final concentration of 200 nM and SYPRO Orange was used at a final concentration of 10×. It was performed in a Step One Real-Time PCR System (Applied Biosystems, Waltham, MA, USA). The experiment was carried out in 10 µL triplicates in 50 mM HEPES buffer at pH 7.5, nanopure water, and the inhibitor concentrations were based on the IC50 values of the inhibitor, 3y. Sample solutions were dispensed into a 96-well optical reaction plate (Thermo Fisher Scientific, Waltham, […], USA) and the plate was sealed with an optical PCR plate sheet (Thermo Fisher Scientific). […] Melting curves were obtained from the negative derivative and exported from the instrument into Excel. The negative melting temperatures were smoothed and differentiated to the negative third derivative. The Tm data were plotted against the log(concentration of 3y) with GraphPad Prism using a derived Van’t Hoff equation [39] to find the Ki value.

[3] = Cyclobutanone/hydrate equilibrium by NMR; assay type: physicochemical
Excerpt: Cyclobutanone 3y is soluble in CDCl3, but we wanted to vary the amount of D2O, and water has a solubility of only 0.815% in chloroform, so varying the quantity of D2O would not alter the concentration of D2O in CDCl3 solution once saturation is reached. We therefore selected DMSO-d6 as the solvent to enable the varying of the D2O concentration, which also provides a more polar environment that is more conducive to hydrate formation and is a better mimic of the environment of the enzyme in aqueous media. The ratio of hydrate to ketone was determined by the ratio of the integrals of the proton alpha to the hydrate/carbonyl and the α-amino group, which was 4.67 ppm for the hydrate in DMSO-d6 + 20% D2O and 4.40 ppm for the cyclobutanone ketone in DMSO-d6 + 20% D2O.
Cyclobutanone 3y was massed to 2–3 mg and the exact mass was recorded. Compound 3y was then dissolved in the appropriate amount of deuterated solvent (DMSO-d6 or CDCl3) and vortexed. The appropriate amount of deuterium oxide (0%, 2%, 10%, 20%, or 30%) was added to the sample and the sample was vortexed. The sample was inserted into the Bruker 500 MHz NMR and data were collected for 64 scans. The raw data were analyzed with the Mnova NMR program, and the Keq was calculated via the method described by the Wiberg group.

[4] = design: method as in doi:10.1021/ja00103a024; conditions: in D2O, cited from earlier work
[5] = test system: DapE; conditions: cited from earlier work

Sequence of HiDapE (P44514 whole entry): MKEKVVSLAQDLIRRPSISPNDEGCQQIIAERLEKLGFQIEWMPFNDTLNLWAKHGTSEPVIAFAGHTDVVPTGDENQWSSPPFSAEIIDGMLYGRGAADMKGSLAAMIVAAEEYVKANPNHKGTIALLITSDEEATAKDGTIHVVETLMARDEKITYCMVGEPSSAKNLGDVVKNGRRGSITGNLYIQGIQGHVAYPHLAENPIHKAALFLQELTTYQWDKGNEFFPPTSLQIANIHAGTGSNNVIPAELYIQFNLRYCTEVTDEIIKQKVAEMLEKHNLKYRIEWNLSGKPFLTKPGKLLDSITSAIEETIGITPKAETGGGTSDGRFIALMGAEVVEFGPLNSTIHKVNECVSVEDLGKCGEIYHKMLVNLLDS
Sequence of H. influenzae DapE (HiDapE) (P44514 whole entry): as above

For `COc1ccc(S(=O)(=O)N[C@@H](C(=O)NC2CCC2=O)C(C)C)cc1` (mixture of isomers) [3y, (2R)-2-((4-Methoxyphenyl)sulfonamido)-3-methyl-N-(2-oxocyclobutyl)butanamide], the inhibition at 100 µM [1] was 99.7%, the IC50 [1] was 23.1 ± 0.9 µM and the Tm1 ([2]; 200 nM HiDapE + 1 μM 3y) was 49.6 +/− 0.18 °C. For the same compound, the Tm2 ([2]; 200 nM HiDapE + 1 μM 3y) was 76.5 +/− 0.54 °C, the Tm1 ([2]; 200 nM HiDapE + 5 μM 3y) was 49.0 +/− 0.30 °C and the Tm2 ([2]; 200 nM HiDapE + 5 μM 3y) was 77.3 +/− 0.20 °C. The Tm1 ([2]; 200 nM HiDapE + 10 μM 3y) was 50.0 +/− 0.34 °C, the Tm2 ([2]; 200 nM HiDapE + 10 μM 3y) was 77.3 +/− 0.23 °C and the Tm1 ([2]; 200 nM HiDapE + 20 μM 3y) was 51.2 +/− 0.13 °C. The Tm2 ([2]; 200 nM HiDapE + 20 μM 3y) was 77.3 +/− 0.51 °C, the Tm1 ([2]; 200 nM HiDapE + 30 μM 3y) was 52.1 +/− 0.5 °C and the Tm2 ([2]; 200 nM HiDapE + 30 μM 3y) was 75.1 +/− 0.17 °C. For the same compound, the Tm1 ([2]; 200 nM HiDapE + 40 μM 3y) was 52.7 +/− 0.37 °C, the Tm2 ([2]; 200 nM HiDapE + 40 μM 3y) was 75.2 +/− 0.11 °C and the Tm1 ([2]; 200 nM HiDapE + 50 μM 3y) was 53.4 +/− 0.23 °C. For the same compound, the Tm2 ([2]; 200 nM HiDapE + 50 μM 3y) was 74.7 +/− 0.40 °C, the Tm1 ([2]; 200 nM HiDapE + 60 μM 3y) was 54.1 +/− 0.35 °C and the Tm2 ([2]; 200 nM HiDapE + 60 μM 3y) was 75.1 +/− 0.23 °C. For the same compound, the Tm1 ([2]; 200 nM HiDapE + 75 μM 3y) was 54.6 +/− 0.42 °C, the Tm2 ([2]; 200 nM HiDapE + 75 μM 3y) was 75.7 °C and 75.7 +/− 0.29 °C and the Ki ([2]; from Tm1 vs log[3y], 200 nM HiDapE) was 10.2 µM. For the same compound, the “% Hydrate” value ([3]; CDCl3 + 30% D2O) was 7.33%, the “Keq = [hydrate]/[ketone]” value ([3]; CDCl3 + 30% D2O (saturated with D2O)) was 0.082 and the “% Hydrate” value ([3]; DMSO-d6 + 2% D2O) was 35.4%. For the same compound, the “Keq = [hydrate]/[ketone]” value ([3]; DMSO-d6 + 2% D2O) was 0.58, the “% Hydrate” value ([3]; DMSO-d6 + 10% D2O) was 38.8% and the “Keq = [hydrate]/[ketone]” value ([3]; DMSO-d6 + 10% D2O) was 0.61. For the same compound, the “% Hydrate” value ([3]; DMSO-d6 + 20% D2O) was 40% and the melting point was 179 to 181 °C.

In the case of `COc1cccc(CC(=O)NC2CCC2=O)c1` (stereo not shown) [3s, 2-(3-Methoxyphenyl)-N-(2-oxocyclobutyl)acetamide], the inhibition at 100 µM [1] is reported as 27% and the melting point is reported as 104 to 105 °C.

Compound `O=C(Cc1ccc(Br)cc1)NC1CCC1=O` (stereo not shown) [3t, 2-(4-Bromophenyl)-N-(2-oxocyclobutyl)acetamide] has an inhibition at 100 µM [1] of 59% and a melting point of 124 to 127 °C.

`O=C(CCc1nc2ccccc2[nH]1)NC1CCC1=O` (stereo not shown) [3u] showed an inhibition at 100 µM [1] of 84.7%, an IC50 [1] of 52.4 ± 7.4 µM and a melting point of 179 to 181 °C.

In the case of `O=C1CCC1` [Cyclobutanone, cyclobutanone], the “% Hydrate” value [4] is given as 2.0%, the “Keq = [hydrate]/[ketone]” value [4] is given as 2.8 × 10^−3 and the “% Hydrate” value ([4]; listed as cyclobutanone) is given as “about 2%”.

In the case of `C[C@H](CS)C(=O)N1CCC[C@H]1C(=O)O` [captopril], the DapE inhibition [5] is listed as “low micromolar inhibitor”.
